Data from patent publication US20250380702A1, “HERBICIDAL MIXTURES COMPRISING L-GLUFOSINATE OR ITS SALT AND A SECOND HERBICIDE” (BASF SE, priority 2022, published 2025).
Where “and” joins values, the source holds several entries; their conditions need not be identical. Equal entries are not always repeated. Where two headings read alike, the source gives them in different places.

Experiments:
Assay in all cases: Greenhouse post emergence treatment, herbicidal activity
[1] = test system: CHEAL; type: in vivo, Chenopodium album; conditions: solo application, 7 DAT
Source text: (§1) Synergism can be described as an interaction where the combined effect of two or more compounds is greater than the sum of the individual effects of each of the compounds. The presence of a synergistic effect in terms of percent control, between two mixing partners (X and Y) can be calculated using the Colby equation (Colby, S. R., 1967, Calculating Synergistic and Antagonistic Responses in Herbicide Combinations, Weeds, 15, 21-22):
(§2) When the observed combined control effect is greater than the expected (calculated) combined control effect (E), then the combined effect is synergistic.
(§3) The culture containers used were plastic flowerpots containing loamy sand with approximately 3.0% of humus as the substrate. The seeds of the test plants were sown separately for each species and/or resistant biotype. For the pre-emergence treatment, the active ingredients, which had been suspended or emulsified in water, were applied directly after sowing by means of finely distributing nozzles. The containers were irrigated gently to promote germination and growth and subsequently covered with transparent plastic hoods until the plants had rooted. This cover caused uniform germination of the test plants, unless this had been impaired by the active ingredients. For the post-emergence treatment, the test plants were first grown to a height of 3 to 15 cm, depending on the plant habit, and only then treated with the active ingredients which had been suspended or emulsified in water. For this purpose, the test plants were either sown directly and grown in the same containers, or they were first grown separately as seedlings and transplanted into the test containers a few days prior to treatment. Depending on the species, the plants were kept at 10-25° C. or 20-35° C., respectively. The test period extended to 20 days after treatment. During this time, the plants were tended, and their response to the individual treatments was evaluated. The evaluation was carried out by using a scale from 0 to 100. 100 means no emergence of the plants or complete destruction of at least the above-ground parts, and 0 means no damage, or normal course of growth.
(§4) As indicated in the respective examples, assessment was either after 7 days or 20 days after treatment (DAT).

[2] = test system: ABUTH; type: in vivo, Abutilon theophrasti; conditions: solo application; for inhibition at 250 g/ha: Abutilon theophrasti, 250 gai/ha
Source text: as §1, §2, §3, §4

[3] = test system: KCHSC; type: in vivo, Bassia scoparia; conditions: for % activity: solo application, post emergence, 7 DAT
Source text: as §1, §2, §3, §4

[4] = test system: Volunteer HORVS; type: in vivo, Volunteer Barley; conditions: for % activity: solo application, post emergence
Source text: as §1, §2, §3, §4

[5] = test system: AVEFA; type: in vivo, Avena fatua; conditions: solo application, 7 DAT
Source text: as §1, §2, §3, §4

[6] = test system: POLAV; type: in vivo, Polygonum aviculare; conditions: solo application, 7 DAT
Source text: as §1, §2, §3, §4

[7] = Bassia scoparia, post-emergence, 168 h, read-out: % activity

CN1C[C@H](c2cccc(C(F)(F)F)c2)[C@@H](C(=O)Nc2ccccc2F)C1=O [Tetflupyrolimet] was tested, and the “% activity” value ([1]; 50 gai/ha) was 15%, the “% activity” value ([1]; 100 gai/ha) was 25% and the “% activity” value ([2]; 25 gai/ha, 7 DAT) was 0%. For the same compound, the “% activity” value ([2]; 25 gai/ha, 20 DAT) was 0%, the “% activity” value ([2]; 100 gai/ha, 7 DAT) was 0% and the “% activity” value ([2]; 100 gai/ha, 20 DAT) was 0%. The “% activity” value ([3]; 25 gai/ha) was 0%, the “% activity” value ([3]; 50 gai/ha) was 0% and the “% activity” value ([3]; 100 gai/ha) was 2.5%. The “% activity” value ([4]; 12.5 gai/ha, 7 DAT) was 0%, the “% activity” value ([4]; 12.5 gai/ha, 20 DAT) was 5% and 0% and the “% activity” value ([4]; 25 gai/ha, 7 DAT) was 0%. For the same compound, the “% activity” value ([4]; 25 gai/ha, 20 DAT) was 5%, the “% activity” value ([4]; 50 gai/ha, 7 DAT) was 0% and the “% activity” value ([4]; 50 gai/ha, 20 DAT) was 5%. The “% activity” value ([4]; 100 gai/ha, 7 DAT) was 5%, the “% activity” value ([5]; 50 gai/ha) was 0% and the “% activity” value ([5]; 100 gai/ha) was 0%. The “% activity” value ([6]; 50 gai/ha) was 5% and the “% activity” value ([6]; 100 gai/ha) was 5%.
For CP(=O)(O)CC[C@H](N)C(=O)O.N [L-Glu, ammonium (2S)-2-amino-4-(methylphosphinato) butyric acid], the inhibition at 500 g/ha ([1]; Chenopodium album, 168 h, 500 gai/ha) was 95%, the inhibition at 1000 g/ha ([1]; Chenopodium album, 168 h, 1000 gai/ha) was 95% and the inhibition at 250 g/ha ([2]; 168 h, 7 DAT) was 75%. For the same compound, the inhibition at 250 g/ha ([2]; 480 h, 20 DAT) was 60%, the inhibition at 250 g/ha [3, 7] was 88% and the inhibition at 500 g/ha [3, 7] was 88%. It also gave an inhibition at 1000 g/ha [3, 7] of 90%, an inhibition at 125 g/ha ([4]; Hordeum vulgare, post-emergence, 168 h, read-out: % activity, solo application, 125 gai/ha, post emergence, 7 DAT) of 90% and an inhibition at 250 g/ha ([4]; Hordeum vulgare, post-emergence, 168 h, read-out: % activity, solo application, 250 gai/ha, post emergence, 7 DAT) of 90%. For the same compound, the inhibition at 500 g/ha ([4]; Hordeum vulgare, post-emergence, 168 h, read-out: % activity, solo application, 500 gai/ha, post emergence, 7 DAT) was 95%, the inhibition at 250 g/ha ([4]; Hordeum vulgare, post-emergence, 480 h, read-out: % activity, solo application, 250 gai/ha, post emergence, 20 DAT) was 75% and the inhibition at 500 g/ha ([4]; Hordeum vulgare, post-emergence, 480 h, read-out: % activity, solo application, 500 gai/ha, post emergence, 20 DAT) was 85%. The “% activity” value ([4]; 125 gai/ha, 20 DAT) was 65% and 35%, the inhibition at 500 g/ha ([5]; Avena fatua, 168 h, 500 gai/ha) was 90% and the inhibition at 1000 g/ha ([5]; Avena fatua, 168 h, 1000 gai/ha) was 90%. For the same compound, the inhibition at 500 g/ha ([6]; Polygonum aviculare, 168 h, 500 gai/ha) was 95% and the inhibition at 1000 g/ha ([6]; Polygonum aviculare, 168 h, 1000 gai/ha) was 95%.
